SMILES strings stand for the structures.

This experiment deals with IL-1β production in human peripheral blood mononuclear cells (PBMC). Nature of the experiment: LPS-induced IL-1β release from human peripheral blood mononuclear cells (PBMC), ELISA. The note with it: 1 ng/ml LPS, 18 hours at 37° C., IL-1β by ELISA. It counts as cell-based. As for the experimental part:
IL-1 Release from Human Peripheral Blood Mononuclear Cells (PBMC)
Human peripheral blood mononuclear cells (PBMC) were separated from Buffy coats obtained from normal healthy donors on Lymphoprep. […] Cells were incubated for 18 hours at 37° C. with 5% CO2 and the cell culture supernatants harvested and stored at -70° C. Effects on the production of IL-1β were determined by using an ELISA.
In general terms: An ELISA detects its analyte on a solid surface through an enzyme-linked reagent.
In general, IC50 refers to the point on the concentration scale where inhibition reaches its midpoint. Low readings indicate higher potency, high ones lower potency. `C/C=C/[C@@H]1OC(=O)C=C[C@@H]1OC(=O)c1ccc2c(c1)C(=O)c1ccccc1-2` [Example 5f, ((2S,3S)-3,6-Dihydro-6-oxo-(2E-prop-1-enyl-2H-pyran-3-yl))-9-oxo-9H-fluorene-2-carboxylate] had an IC50 of 1200 nM.

For `C/C=C/[C@@H]1OC(=O)C=C[C@@H]1OC(=O)c1ccc(CCCCC)cc1` [Example 5k, ((2S,3S)-3,6-Dihydro-6-oxo-(2E-prop-1-enyl-2H-pyran-3-yl))-4-pentylbenzoate], the IC50 was 400 nM. The result for `C/C=C/[C@H]1OC(=O)C=C[C@@H]1NCc1ccc(-c2ccccc2)cc1` [Example 2b, (5S,6R)-5-(4-biphenylmethylamino)-6E-prop-1-ene-5,6-dihydro-2H-pyran-2-one] reads 6900 nM; that for `CCCCCC[C@H](C)/C=C(C)/C=C/C(=O)O[C@H]1C=CC(=O)O[C@H]1/C=C/C(=O)NCc1ccccc1` [Example 6c, ((2S,3S)-3,6-Dihydro-6-oxo-(2E-3-oxo-3-benzylaminoprop-1-enyl)-2H-pyran-3-yl)-(2E,4E)-4,6-dimethyldodecadienoate], greater than 9000 nM; that for `C/C=C/[C@@H]1OC(=O)C=C[C@@H]1OC(=O)c1cccc2c1C(=O)c1ccccc1-2` [Example 5e, ((2S,3S)-3,6-Dihydro-6-oxo-(2E-prop-1-enyl-2H-pyran-3-yl))-9-oxo-9H-fluorene carboxylate], 130 nM. Regarding `C/C=C/[C@@H]1OC(=O)C=C[C@H]1OC(=O)c1ccc2c(c1)C(=O)c1ccccc1-2` [Example 1b, ((2S,3R)-3,6-Dihydro-6-oxo-(2E-prop-1-enyl-2H-pyran-3-yl))-9-oxo-9H-fluorene carboxylate], it took 4500 nM to reach half-maximal inhibition (IC50). The result for `C/C=C/[C@@H]1OC(=O)C=C[C@H]1OC(=O)c1ccc(-c2ccccc2)cc1` [Example 1a, ((2S,3R)-3,6-Dihydro-6-oxo-(2E-prop-1-enyl-2H-pyran-3-yl))-4-biphenyl carboxylate] reads greater than 7500 nM; that for `C/C=C/[C@@H]1OC(=O)C=C[C@@H]1OC(=O)/C=C/c1cccc(C)c1` [Example 5i, ((2S,3S)-3,6-Dihydro-6-oxo-(2E-prop-1-enyl-2H-pyran-3-yl))-3m-tolylacrylate], 1000 nM.

`C/C=C/[C@@H]1OC(=O)C=C[C@@H]1OC(=O)CCCCCCCCCCC` [Example 5l, ((2S,3S)-3,6-Dihydro-6-oxo-(2E-prop-1-enyl-2H-pyran-3-yl))dodecanoate] displayed an IC50 of 8400 nM. In the case of `C/C=C/[C@@H]1OC(=O)C=C[C@H]1NC(=O)c1cccc2c1-c1ccccc1C2=O` [Example 3b, ((2S,3R)-3,6-Dihydro-6-oxo-(2E-prop-1-enyl-2H-pyran-3-yl))-9-oxo-9H-fluorene-4-amide], it took 10000 nM to reach half-maximal inhibition (IC50). To `C/C=C/[C@@H]1OC(=O)C=C[C@@H]1OC(=O)c1ccc(-c2ccc(CC)cc2)cc1` [Example 5c, ((2S,3S)-3,6-Dihydro-6-oxo-(2E-prop-1-enyl-2H-pyran-3-yl))-4'-ethyl-4-biphenylcarboxylate] belongs 100 nM. `C/C=C/[C@@H]1OC(=O)C=C[C@H]1OC(=O)c1ccccc1` [Example 1, ((2S,3R)-3,6-Dihydro-6-oxo-(2E-prop-1-enyl-2H-pyran-3-yl)) benzoate] had an IC50 of 2400 nM. The result for `CCCCCC[C@H](C)/C=C(C)/C=C/C(=O)O[C@H]1C=CC(=O)O[C@H]1/C=C/C(=O)OCCCC` [Example 6b, ((2S,3S)-3,6-Dihydro-6-oxo-(2E-3-oxo-3-butoxyprop-1-enyl)-2H-pyran-3-yl)-(2E,4E)-4,6-dimethyldodecadienoate] reads 1400 nM. As to `C/C=C/[C@@H]1OC(=O)C=C[C@H]1NC(=O)c1ccc(-c2ccccc2)cc1` [Example 3a, ((2S,3R) -3,6-Dihydro-6-oxo-(2E-prop-1-enyl-2H-pyran-3-yl) )4-biphenylamide], the concentration for half-maximal inhibition (IC50) was 1000 nM.

As for `C/C=C/[C@@H]1OC(=O)C=C[C@@H]1OC(=O)Cc1ccccc1` [Example 5h, ((2S,3S)-3,6-Dihydro-6-oxo-(2E-prop-1-enyl-2H-pyran-3-yl))phenylacetate], 1400 nM corresponded to half-maximal inhibition (IC50). `CCCCCC[C@H](C)/C=C(C)/C=C/C(=O)O[C@H]1C=CC(=O)O[C@H]1/C=C/C(=O)OCC` [Example 6, ((2S,3S)-3,6-Dihydro-6-oxo-(2E-3-oxo-3-ethoxyprop-1-enyl-2H-pyran-3-yl))-(2E,4E)-4,6-dimethyldodecadienoate] showed an IC50 of 6000 nM.

As for `C/C=C/[C@@H]1OC(=O)C=C[C@@H]1OC(=O)CCCCCCCCCCCCC` [Example 5m, ((2S,3S)-3,6-Dihydro-6-oxo-(2E-prop-1-enyl-2H-20 pyran-3-yl))tetradodecanoate], the midpoint of inhibition, the IC50, lay at 5400 nM. On to `C/C=C/[C@@H]1OC(=O)C=C[C@@H]1OC(=O)c1ccc(-c2ccccc2)cc1` [Example 5b, ((2S,3S)-3,6-Dihydro-6-oxo-(2E-prop-1-enyl-2H-pyran-3-yl))-4-biphenylcarboxylate], for which the IC50 was found to be 300 nM.

The compound `C/C=C/[C@@H]1OC(=O)C=C[C@@H]1OCOCCOC` [Example 4a, (2S,3S)-5-(2-Methoxy-ethoxymethoxy)-6-(2E-prop-1-enyl)-5,6-dihydro-2H-pyran-2-one] had an IC50 of 8500 nM. The result for `C/C=C/[C@H]1OC(=O)C=C[C@@H]1NCc1ccccc1` [Example 2a, (5S,6R)-5-benzylamino-6E-prop-1-ene-5,6-dihydro-2H-pyran-2-one] reads 12000 nM; that for `C/C=C/[C@@H]1OC(=O)C=C[C@@H]1OCc1ccccc1` [Example 4c, (2S,3S)-5-Benzyloxy-6-(2E-prop-1-enyl)-5,6-dihydro-2H-pyran-2-one], 1200 nM. As for `C/C=C/[C@@H]1OC(=O)C=C[C@H]1OC(=O)/C=C/C(C)=C/[C@@H](C)CCCCCC` [Example 4, ((2S,3R)-3,6-Dihydro-6-oxo-(2E-prop-1-enyl-2H-pyran-3-yl))-(2E,4E)-4,6-dimethyldodecanoate], the IC50 came out at 4000 nM.

`C/C=C/[C@H]1OC(=O)C=C[C@@H]1NCC1c2ccccc2-c2ccccc21` [Example 2c, (5S,6R)-5-(2-9H-fluorenemethylamino)-6E-prop-1-ene-5,6-dihydro-2H-pyran-2-one]: it took 3600 nM to reach half-maximal inhibition (IC50). In the case of `C/C=C/[C@@H]1OC(=O)C=C[C@@H]1OC(=O)Cc1ccc(-c2ccccc2)cc1` [Example 5g, ((2S,3S)-3,6-Dihydro-6-oxo-(2E-prop-1-enyl-2H-pyran-3-yl))-4-biphenylacetate], half-maximal inhibition (IC50) was put at 13400 nM.

In turn, `CCCCCC[C@H](C)/C=C(C)/C=C/C(=O)O[C@H]1C=CC(=O)O[C@H]1/C=C/C(=O)OCCC` [Example 6a, ((2S,3S)-3,6-Dihydro-6-oxo-(2E-3-oxo-3-propoxyprop-1-enyl)-2H-pyran-3-yl)-(2E,4E)-4,6-dimethyldodecadienoate] came in with an IC50 of 1400 nM. The compound `C/C=C/[C@@H]1OC(=O)C=C[C@H]1NC(=O)c1cccc2c1-c1ccccc1C2=O` [Example 3d, ((2S,3R)-3,6-Dihydro-6-oxo-(2E-prop-1-enyl-2H-pyran-3-yl))-9-oxo-9H-fluorene-4-amide] registered an IC50 of 11300 nM.

In turn, `C/C=C/[C@@H]1OC(=O)C=C[C@@H]1OC(=O)/C=C/CCCCCCCCC` [Example 5, ((2S,3S)-3,6-Dihydro-6-oxo-(2E-prop-1-enyl-2H-pyran-3-yl))dodeca-2E-enoate] yielded an IC50 of 2800 nM. Regarding `C/C=C/[C@@H]1OC(=O)C=C[C@@H]1OCc1ccc(-c2ccccc2)cc1` [Example 4b, (2S,3S)-5-(4-Biphenylmethoxy)-6-(2E-prop-1-enyl)-5,6-dihydro-2H-pyran-2-one], the IC50 worked out at 400 nM. To `C/C=C/[C@@H]1OC(=O)C=C[C@@H]1OC(=O)/C=C/c1ccco1` [Example 5a, ((2S,3S)-3,6-dihydro-6-oxo-(2E-prop-1-enyl-2H-yran-3-yl))-3-(2-furfuryl)acrylate] belongs 1200 nM; to `C/C=C/[C@@H]1OC(=O)C=C[C@H]1NC(=O)c1ccccc1` [Example 3, ((2S,3R)-3,6-Dihydro-6-oxo-(2E-prop-1-enyl-2H-pyran-3-yl)) phenylamide], 9700 nM. To `C/C=C/[C@@H]1OC(=O)C=C[C@@H]1OC(=O)/C=C/c1ccc2ccccc2c1` [Example 5j, ((2S,3S)-3,6-Dihydro-6-oxo-(2E-prop-1-enyl-2H-pyran-3-yl))-3-(2-naphthyl)acrylate] belongs 700 nM; to `C/C=C/[C@@H]1OC(=O)C=C[C@H]1NC(=O)c1ccc(-c2ccccc2)cc1` [Example 3c, ((2S,3R)-3,6-Dihydro-6-oxo-(2E-prop-1-enyl-2H-pyran-3-yl))-4-biphenylamide], 1300 nM; to `C/C=C/[C@@H]1OC(=O)C=C[C@@H]1OC(=O)c1cccc2c1Cc1ccccc1-2` [Example 5d, ((2S,3S)-3,6-Dihydro-6-oxo-(2E-prop-1-enyl-2H-pyran-3-yl))-9H-fluorenecarboxylate], 300 nM.

With `C/C=C/[C@@H]1OC(=O)C=C[C@H]1OC(=O)c1cccc2c1C(=O)c1ccccc1-2` [Example 1c], the IC50 is 4000 nM.

(Values after US6197811A, “Cytokine production inhibitors” (Terragen Discovery Inc., priority 1998, dated 2001).)
